Experimental data taken from US20120010173A1 (SEPS PHARMA N.V., priority 2009, published 2012).

Columns and labels:
[1] = Chemical stability in pharmaceutical solvents (weight % remaining in solution, LCMS); format: physicochemical
Method: Table 4 provides the chemical stability data in some pharmaceutical solvents, expressed as the weight percentage (% w/w) of the final fosfluconazole derivative produced and characterized in example 1 that remained in solution after a certain period of time. The test was carried out twice, and the remaining weight % was determined by Liquid Chromatography-Mass Spectrometry (LCMS).
Table 5 provides the chemical stability data in some pharmaceutical solvents at 25° C., expressed as the weight percentage (% w/w) of the final fosfluconazole derivative produced and characterized in example 2 that remained in solution after a certain period of time. The test was carried out twice, and the remaining weight % was determined by Liquid Chromatography-Mass Spectrometry (LCMS).
Table 6 provides the chemical stability data in some pharmaceutical solvents at 25° C., expressed as the weight percentage (% w/w) of the final fosfluconazole derivative produced and characterized in example 3 that remained in solution after a certain period of time. The test was carried out twice, and the remaining weight % was determined by Liquid Chromatography-Mass Spectrometry (LCMS).
Table 7 provides the chemical stability data in some pharmaceutical solvents, expressed as the weight percentage (% w/w) of the final fosfluconazole derivative produced and characterized in example 4 that remained in solution after a certain period of time. The test was carried out twice, and the remaining weight % was determined by Liquid Chromatography-Mass Spectrometry (LCMS).
Table 8 provides the chemical stability data in some pharmaceutical solvents, expressed as the weight percentage (% w/w) of the final fosfluconazole derivative produced and characterized in example 5 that remained in solution after a certain period of time. The test was carried out twice, and the remaining weight % was determined by Liquid Chromatography-Mass Spectrometry (LCMS).
Table 9 provides the chemical stability data in some pharmaceutical solvents, expressed as the weight percentage (% w/w) of the final fosfluconazole derivative produced and characterized in example 6 that remained in solution after a certain period of time. The test was carried out twice, and the remaining weight % was determined by Liquid Chromatography-Mass Spectrometry (LCMS).
Table 10 provides the chemical stability data in some pharmaceutical solvents, expressed as the weight percentage (% w/w) of the final fosfluconazole derivative produced and characterized in example 14 that remained in solution after a certain period of time. The test was carried out twice, and the remaining weight % was determined by Liquid Chromatography-Mass Spectrometry (LCMS).

[2] = Solubility of fosfluconazole derivatives in pharmaceutical solvents (Table 2); format: physicochemical; conditions: thermodynamic from solid
Method: The solubility determination method used was as follows: a suspension of 6 mg of the tested fosfluconazole derivative in 500 μl of the applicable pharmaceutical solvent was rotatively shaken for 24 hours at 800 rpm at 25° C. The saturated fosfluconazole derivative solution was filtered (0.45 μm) and 150 μl of the filtrate was diluted in dimethylsulfoxide (50 μl DMSO). This solution was assayed, each assay being carried out in three-fold, by measurement with Liquid Chromatography-Mass Spectrometry (LCMS, 1 μl and 10 μl injection). Standards were prepared by dissolving the corresponding fosfluconazole derivative in DMSO (1 mg/ml). To determine the solubility, four aliquots (0.5, 1, 2, 4 μl) of the standard solution were injected using the same LCMS conditions as for the above exemplary samples.

[3] = H2O/Kleptose HPB (60/40), 4 hours
[4] = H2O/Kleptose HPB (60/40), 1 day
[5] = H2O/Kleptose HPB (60/40), 2 days
[6] = H2O/Kleptose HPB (60/40), 7 days
[7] = H2O/Kleptose HPB (60/40), 14 days
[8] = aqueous with cosolvent or surfactant or cyclodextrin, H2O/Cremophor RH 40 (80/20), 25° C.
[9] = aqueous with cosolvent or surfactant or cyclodextrin, H2O/Kleptose HPB (60/40), 25° C.
[10] = aqueous with cosolvent or surfactant or cyclodextrin, H2O/Vitamin E TPGS (90/10), 25° C.
[11] = aqueous with cosolvent or surfactant or cyclodextrin, H2O/polysorbate 80 (80/20), 25° C.
[12] = oil or lipid, Miglyol 812, 25° C.
[13] = organic solvent or mixture, PEG 400, 25° C.
[14] = water (pH 2), aqueous buffer, H2O (pH = 2), 25° C.
[15] = water (pH 7), aqueous buffer, H2O (pH = 7), 25° C.
[16] = water (pH 10), aqueous buffer, H2O (pH = 10), 25° C.

| SMILES | weight percentage that remained in solution ([1]; H2O (pH = 7), 4 hours) [% w/w] | weight percentage that remained in solution ([1]; H2O (pH = 7), 1 day) [% w/w] | weight percentage that remained in solution ([1]; H2O (pH = 7), 2 days) [% w/w] | weight percentage that remained in solution ([1]; H2O (pH = 7), 7 days) [% w/w] | weight percentage that remained in solution ([1]; H2O (pH = 7), 14 days) [% w/w] | weight percentage that remained in solution ([1]; H2O (pH = 10), 4 hours) [% w/w] | weight percentage that remained in solution ([1]; H2O (pH = 10), 1 day) [% w/w] | weight percentage that remained in solution ([1]; H2O (pH = 10), 2 days) [% w/w] | weight percentage that remained in solution ([1]; H2O (pH = 10), 7 days) [% w/w] | weight percentage that remained in solution ([1]; H2O (pH = 10), 14 days) [% w/w] | weight percentage that remained in solution [1, 3] [% w/w] | weight percentage that remained in solution [1, 4] [% w/w] | weight percentage that remained in solution [1, 5] [% w/w] | weight percentage that remained in solution [1, 6] [% w/w] | weight percentage that remained in solution [1, 7] [% w/w] | weight percentage that remained in solution ([1]; PEG 400, 4 hours) [% w/w] | weight percentage that remained in solution ([1]; PEG 400, 1 day) [% w/w] | weight percentage that remained in solution ([1]; PEG 400, 2 days) [% w/w] | weight percentage that remained in solution ([1]; PEG 400, 7 days) [% w/w] | weight percentage that remained in solution ([1]; PEG 400, 14 days) [% w/w] | also measured |
| --- | --- | --- | --- | --- | --- | --- | --- | --- | --- | --- | --- | --- | --- | --- | --- | --- | --- | --- | --- | --- | --- |
| CCCCCCCCCOCCOP(=O)([O-])OC(Cn1cncn1)(Cn1cncn1)c1ccc(F)cc1F.[Na+] [Example 3, sodium 2-(2,4-difluorophenyl)-1,3-di(1H-1,2,4-triazol-1-yl)propan-2-yl 2-(nonyloxy)ethyl phosphate] | 94.8 | 94.7 | 95.0 | 94.8 | 95.1 | 94.8 | 94.8 | 95.0 | 95.0 | 95.2 | 95.0 | 94.9 | 94.7 | 95.0 | 95.2 | 95.0 | 94.9 | 95.0 | 95.0 | 95.1 | weight percentage that remained in solution ([1]; H2O (pH = 2), 4 hours): 94.8 % w/w; weight percentage that remained in solution ([1]; H2O (pH = 2), 1 day): 94.6 % w/w; weight percentage that remained in solution ([1]; H2O (pH = 2), 2 days): 95.0 % w/w; weight percentage that remained in solution ([1]; H2O (pH = 2), 7 days): 95.0 % w/w; weight percentage that remained in solution ([1]; H2O (pH = 2), 14 days): 95.0 % w/w; solubility at 24 h [2, 8]: > 10000 µg/mL; solubility at 24 h [2, 9]: > 10000 µg/mL; solubility at 24 h [2, 10]: > 10000 µg/mL; solubility at 24 h [2, 11]: > 10000 µg/mL; solubility at 24 h [2, 12]: 2600 µg/mL; solubility at 24 h [2, 13]: > 10000 µg/mL; solubility at 24 h [2, 14]: > 10000 µg/mL; solubility at 24 h [2, 15]: > 10000 µg/mL; solubility at 24 h [2, 16]: > 10000 µg/mL |
| CCCCCCCCCC(=O)OCCOP(=O)([O-])OC(Cn1cncn1)(Cn1cncn1)c1ccc(F)cc1F.[Na+] [Example 2, sodium 2-(decanoyloxy)ethyl 2-(2,4-difluorophenyl)-1,3-di(1H-1,2,4-triazol-1-yl)propan-2-yl phosphate] | 97.8 | 97.7 | 98.0 | 97.8 | 97.9 | 94.6 | 98.0 | 96.8 | 96.8 | 99.2 | 98.0 | 98.0 | 98.2 | 97.7 | 98.0 | 97.7 | 97.9 | 98.1 | 98.0 | 98.7 | weight percentage that remained in solution ([1]; H2O (pH = 2), 4 hours): 97.8 % w/w; weight percentage that remained in solution ([1]; H2O (pH = 2), 1 day): 97.7 % w/w; weight percentage that remained in solution ([1]; H2O (pH = 2), 2 days): 96.8 % w/w; weight percentage that remained in solution ([1]; H2O (pH = 2), 7 days): 96.7 % w/w; weight percentage that remained in solution ([1]; H2O (pH = 2), 14 days): 100.0 % w/w; solubility at 24 h [2, 8]: > 10000 µg/mL; solubility at 24 h [2, 9]: > 10000 µg/mL; solubility at 24 h [2, 10]: > 10000 µg/mL; solubility at 24 h [2, 11]: > 10000 µg/mL; solubility at 24 h [2, 12]: 5000 µg/mL; solubility at 24 h [2, 13]: > 10000 µg/mL; solubility at 24 h [2, 14]: 6900 µg/mL; solubility at 24 h [2, 15]: > 10000 µg/mL; solubility at 24 h [2, 16]: > 10000 µg/mL |
| CCCCCCCCCC(=O)OCC(COP(=O)([O-])OC(Cn1cncn1)(Cn1cncn1)c1ccc(F)cc1F)OC(=O)CCCCCCCCC.[Na+] (stereo not shown) [Example 4, sodium 2,3-bis(decanoyloxy)propyl 2-(2,4-difluorophenyl)-1,3-di(1H-1,2,4-triazol-1-yl)propan-2-yl phosphate] | 95.2 | 95.3 | 95.5 | 95.6 | 95.4 | 45.5 | 44.8 | 41.3 | 39.4 | 37.1 | 95.1 | 95.3 | 95.3 | 94.2 | 87.7 | 96.8 | 95.9 | 96.7 | 96.6 | 97.3 | solubility at 24 h [2, 8]: > 10000 µg/mL; solubility at 24 h [2, 9]: > 10000 µg/mL; solubility at 24 h [2, 10]: > 10000 µg/mL; solubility at 24 h [2, 11]: > 10000 µg/mL; solubility at 24 h [2, 12]: > 10000 µg/mL; solubility at 24 h [2, 13]: 9000 µg/mL; solubility at 24 h [2, 14]: < 1000 µg/mL; solubility at 24 h [2, 15]: 9900 µg/mL; solubility at 24 h [2, 16]: > 10000 µg/mL |
